inhibition, Kd and Activity data for twelve molecules are collected here from ChEMBL document CHEMBL3997788, “Virtual screening and experimental validation identify novel modulators of nuclear receptor RXRα from Drugbank database” (Bioorg Med Chem Lett, 2017).

Active and inactive are the calls of the source. The rule behind the calls is not given here.

Experiment [1] addresses T1, Retinoic acid receptor RXR-alpha (Homo sapiens) (UniProt P19793).
T1 sequence (whole entry): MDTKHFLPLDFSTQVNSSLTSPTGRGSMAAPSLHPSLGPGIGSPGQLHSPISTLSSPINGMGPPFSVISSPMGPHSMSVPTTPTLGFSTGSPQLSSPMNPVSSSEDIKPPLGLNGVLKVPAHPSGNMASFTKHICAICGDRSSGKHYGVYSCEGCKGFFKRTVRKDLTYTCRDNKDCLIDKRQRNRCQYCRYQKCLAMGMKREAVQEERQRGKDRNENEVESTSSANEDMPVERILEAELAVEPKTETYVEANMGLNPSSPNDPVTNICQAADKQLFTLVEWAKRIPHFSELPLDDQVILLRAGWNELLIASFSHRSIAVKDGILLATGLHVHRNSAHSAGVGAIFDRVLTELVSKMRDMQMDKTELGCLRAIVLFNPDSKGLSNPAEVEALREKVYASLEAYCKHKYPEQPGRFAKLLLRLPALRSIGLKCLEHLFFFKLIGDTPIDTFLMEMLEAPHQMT
The experiment can be described thus: Antagonist activity at Myc-tagged RXRalpha (unknown origin) expressed in human MCF-7 cells assessed as inhibition of 9-cis-RA induced receptor transactivation at 100 nM after 24 hrs by luciferase reporter gene assay. The format is cell-based. (A reporter such as luciferase makes a cellular process visible.)

Experiment [2] has as its target T2, Retinoic acid receptor RXR-alpha (Homo sapiens, UniProt P19793).
T2 sequence (P19793 whole entry): T1 sequence (whole entry)
The experiment can be described thus: Binding affinity to RXRalpha-LBD (unknown origin) measured up to 120 sec by surface plasma resonance method.

The target of experiment [3] is T1, Retinoic acid receptor RXR-alpha (Homo sapiens). The experiment can be described thus: Antagonist activity at Myc-tagged RXRalpha (unknown origin) expressed in human MCF-7 cells assessed as inhibition of 9-cis-RA induced receptor transactivation at 10 uM after 24 hrs by luciferase reporter gene assay. The format is cell-based.
Experiment [4] has the same target. The experiment can be described thus: Antagonist activity at Myc-tagged RXRalpha (unknown origin) expressed in human MCF-7 cells assessed as inhibition of 9-cis-RA induced receptor transactivation after 24 hrs by luciferase reporter gene assay. The format is cell-based.
For experiment [5] the target is unchanged. Description: Antagonist activity at Myc-tagged RXRalpha (unknown origin) expressed in human MCF-7 cells assessed as inhibition of 9-cis-RA induced receptor transactivation at 1 uM after 24 hrs by luciferase reporter gene assay. It counts as cell-based.
Experiment [6] has the same target. Description: Agonist activity at Myc-tagged RXRalpha (unknown origin) expressed in human MCF-7 cells assessed as increase in 9-cis-RA induced receptor transactivation at 1 uM after 24 hrs by luciferase reporter gene assay. The format is cell-based.
The target is the same in experiment [7]. The experiment can be described thus: Agonist activity at Myc-tagged RXRalpha (unknown origin) expressed in human MCF-7 cells assessed as increase in 9-cis-RA induced receptor transactivation at 5 to 10 uM after 24 hrs by luciferase reporter gene assay. The format is cell-based.
The target is the same in experiment [8]. Description: Agonist activity at Myc-tagged RXRalpha (unknown origin) expressed in human MCF-7 cells assessed as receptor transactivation at 10 uM after 24 hrs by luciferase reporter gene assay. The format is cell-based.

In the case of `O=C(O)/C=C/C=C/C=C/c1c(C2CC2)nc2ccccc2c1-c1ccc(F)cc1`, the inhibition result in experiment [1] is “Active”. In experiment [2], this molecule had a Kd of 5.12 µM.

Regarding `O=C1C=CCC(/C=C/c2c(C3CC3)nc3ccccc3c2-c2ccc(F)cc2)O1` (stereo not drawn), the inhibition entry in experiment [3] is “inactive”. Besides, in experiment [2], binding was characterised by a dissociation constant (Kd) of 138 µM.

For the molecule `CC(C)n1c(/C=C/C(O)CC(O)CC(=O)O)c(-c2ccc(F)cc2)c2ccccc21` (stereo not drawn) [FLUVASTATIN], the inhibition entry in experiment [4] is “Dose-dependent effect”. For the same molecule, in experiment [3], the inhibition entry was “Active”. In experiment [2], this molecule came in with a Kd of 11 µM.

Turning to `O=C(O)C[C@H](O)C[C@H](O)/C=C/c1c(C2CC2)nc2ccccc2c1-c1ccc(F)cc1` [PITAVASTATIN CALCIUM], the inhibition result in experiment [5] and in experiment [3] was “Active” throughout. The molecule also gave a Kd in experiment [2] of 13.3 µM.

`O=C1[C@H](CC[C@H](O)c2ccc(F)cc2)[C@@H](c2ccc(O)cc2)N1c1ccc(F)cc1`: the inhibition result in experiment [3] was “Active”.

`Clc1ccc(CCC(Cn2ccnc2)Sc2c(Cl)cccc2Cl)cc1` (stereo not drawn): in experiment [3], the inhibition result was “Active”.

For `CC(C)c1nc(N(C)S(C)(=O)=O)nc(-c2ccc(F)cc2)c1/C=C/[C@@H](O)C[C@@H](O)CC(=O)O`, the inhibition entry in experiment [3] was “Active”.

In the case of `O=C1CCc2cc(OCCCCc3nnnn3C3CCCCC3)ccc2N1`, the inhibition result in experiment [3] is “Active”.

With `CC[C@H](C)C(=O)O[C@H]1C[C@@H](O)C=C2C=C[C@H](C)[C@H](CC[C@@H](O)C[C@@H](O)CC(=O)O)[C@H]21`, in experiment [3], the inhibition result is “inactive”.

For the molecule `CC1=C(C)C(=O)C(C(CCCCCC(=O)O)c2ccccc2)=C(C)C1=O` (stereo not drawn), the inhibition result in experiment [3] is “Active”.

On to `CN(CCOc1ccc(CC2SC(=O)NC2=O)cc1)c1ccccn1` (stereo not drawn), for which the result in experiment [6] and in experiment [8] was inactive. Besides, in experiment [7], the result was Active.

Take `O=c1[nH]c2ccccc2n1CCCN1CCC(n2c(=O)[nH]c3cc(Cl)ccc32)CC1` [DOMPERIDONE]: the result in experiment [6] and in experiment [8] was inactive. Moreover, the outcome in experiment [7] was Active. This molecule had a Kd in experiment [2] of 8.8 µM.

Usually Kd stands for the equilibrium constant for the complex coming apart. Higher therefore signals a looser complex.
